Reference: patent publication US20110269811A1, “INHIBITORS OF SEMICARBAZIDE-SENSITIVE AMINE OXIDASE (SSAO) AND VAP-1 MEDIATED ADHESION USEFUL FOR TREATMENT AND PREVENTION OF DISEASES” (priority 2006, published 2011)
pIC50: −log10 of the molar value. Where a name gives a salt, the structure may show the parent alone.

Tests used:
human MAO-B = molecular target: T1, human MAO-B (Homo sapiens, UniProt P27338); assay: MAO-B activity, colorimetric method, benzylamine substrate; format: biochemical; conditions: for Specificity of SSAO on MAO-B: ratio of IC50 for MAO-B to IC50 for SSAO; for pIC50: recombinant human MAO-B
T1 construct: purchased BD Biosciences (MA, USA)
T1 sequence (P27338 1-520): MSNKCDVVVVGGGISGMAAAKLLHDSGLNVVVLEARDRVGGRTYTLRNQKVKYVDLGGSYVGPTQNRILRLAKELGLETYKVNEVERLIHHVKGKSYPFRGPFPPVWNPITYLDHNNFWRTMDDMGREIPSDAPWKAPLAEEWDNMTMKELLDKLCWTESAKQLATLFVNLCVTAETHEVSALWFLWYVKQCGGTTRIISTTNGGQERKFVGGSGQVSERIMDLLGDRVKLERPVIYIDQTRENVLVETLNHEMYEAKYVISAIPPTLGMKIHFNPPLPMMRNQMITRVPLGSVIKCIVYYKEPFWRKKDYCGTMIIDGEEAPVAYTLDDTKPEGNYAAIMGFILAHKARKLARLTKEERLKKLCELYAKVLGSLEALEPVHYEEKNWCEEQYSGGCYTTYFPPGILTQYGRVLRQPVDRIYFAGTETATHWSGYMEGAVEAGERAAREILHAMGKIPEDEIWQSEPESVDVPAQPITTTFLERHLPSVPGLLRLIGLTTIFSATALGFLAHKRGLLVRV
Procedure: The specificities of the different SSAO inhibitors was tested by determining their abilities to inhibit MAO-A and MAO-B activities in vitro. Recombinant human MAO-A and human MAO-B enzymes were obtained from BD Biosciences (MA, USA). MAO activity was measured using the colorimetric method essentially as described (Holt, A. et al. (1997) Anal. Biochem. 244: 384). A pre-determined amount of inhibitor diluted in 0.2M potassium phosphate buffer, pH 7.6, was added to each well, if required. […] Controls lacked inhibitor. The following agents were then added to a final reaction volume of 200 μL in 0.2M potassium phosphate buffer, pH 7.6: 0.04 mg/ml of MAO-A or 0.07 mg/ml MAO-B enzyme, 15 μL of 10 mM tyramine substrate (for MAO-A), or 15 μL 100 mM benzylamine substrate (for MAO-B), and 50 μL of freshly made chromogenic solution. The chromogenic solution contained 750 μM vanillic acid (Sigma#V-2250), 400 μM 4-aminoantipyrine (Sigma #A-4328) and 12 U/mL horseradish peroxidase (Sigma #P-8250) in order to cause a change of 0.5 OD A490 nm/h. […] The plates were incubated for 60 min at 37° C. The increase in absorbance, reflecting MAO activity, was measured at 490 nm using microplate spectrophotometer (Power Wave 40, Bio-Tek Inst.). Inhibition was presented as percent inhibition compared to control after correcting for background absorbance and IC50 values calculated using GraphPad Prism software. Clorgyline and pargyline (inhibitors of MAO-A and -B, respectively) at 1 μM, were added to some wells as positive controls for MAO inhibition.

SMILES | Specificity of SSAO on MAO-B (human MAO-B) | pIC50 (human MAO-B) | melting point
Cl.NC/C(=C\F)Cc1ccc(Cl)cc1 [Compound I-3-Z, (Z)-2-(4-Chlorobenzyl)-3-fluoro-allylamine hydrochloride] | 3 | 7.08 | 145 to 146 °C
COc1cccc(C/C(=C/F)CN)c1.Cl [Compound I-5-Z, (Z)-3-Fluoro-2-(3-methoxybenzyl)allylamine hydrochloride] | 64.3 | 5.74 | 119 to 120.5 °C
CC(C)Oc1ccc(C/C(=C\F)CN)cc1 [Compound I-8-E, (E)-3-Fluoro-2-(4-isopropoxybenzyl)allylamine hydrochloride] | 3070 | 4.46 | 
CC(C)Oc1ccc(C/C(=C/F)CN)cc1.Cl [Compound I-8-Z, (Z)-3-Fluoro-2-(4-isopropoxybenzyl)allylamine hydrochloride] | 5400 | 4.57 | 147 to 148 °C
CSc1ccc(C/C(=C/F)CN)cc1.Cl [Compound I-9-Z, (Z)-3-Fluoro-2-(4-methylthiobenzyl)allylamine hydrochloride] | 200 | 5.62 | 144 to 146 °C
CC(C)c1ccc(C/C(=C\F)CN)cc1.Cl [Compound I-14-E, (E)-3-Fluoro-2-(4-isopropylbenzyl)allylamine hydrochloride] | 2.54 | 7.48 | 175 to 176 °C
CC(C)c1ccc(C/C(=C/F)CN)cc1.Cl [Compound I-14-Z, (Z)-3-Fluoro-2-(4-isopropylbenzyl)allylamine hydrochloride] | 1250 | 5.02 | 175 to 176 °C
CC(C)(C)c1ccc(C/C(=C/F)CN)cc1.Cl [Compound I-15-Z, (Z)-3-Fluoro-2-(4-tert-butylbenzyl)allylamine hydrochloride] | 5429 | 4.42 | 155 to 156 °C
Cl.NC/C(=C\F)Cc1cccc(F)c1 [Compound I-19-Z, (Z)-3-Fluoro-2-(3-fluorobenzyl)allylamine hydrochloride] | 27.6 | 6.16 | 120.5 to 121.5 °C
NC/C(=C\Cl)CCc1cc(F)cc(C(F)(F)F)c1.O=C(O)C(F)(F)F [Compound I-40-Z, (Z)-3-Chloro-2-(3-fluoro-5-trifluoromethylphenylethyl)allylamine trifluoroacetate] | 185 | 3.77 | 51 to 52 °C
COc1ccc(CC/C(=C\Cl)CN)cc1.Cl [Compound I-44-Z, (E)-3-Chloro-2-(4-methoxyphenylethyl)allylamine hydrochloride] | 22 | 4.80 | 138 °C (dec.)
CCOc1ccc(CC/C(=C\Cl)CN)cc1.Cl [Compound I-45-Z, (E)-3-Chloro-2-(4-ethoxyphenylethyl)allylamine hydrochloride] | 8.6 | 5.92 | 104 to 106 °C
CCCCOc1ccc(CC/C(=C\Cl)CN)cc1.Cl [Compound I-47-E, (E)-3-Chloro-2-(4-n-butoxyphenylethyl)allylamine hydrochloride] | 2.5 | 6.38 | 132 to 133 °C
NC/C(=C\F)CCc1ccc(F)cc1 [Compound I-99-Z, (Z)-2-(fluoromethylene)-4-(4-fluorophenyl)butan-1-amine] | 2.1 | 6.57 | 
COc1ccc(CC/C(=C/F)CN)cc1.Cl [Compound I-102-Z, (Z)-3-Fluoro-2-[2-(4-methoxyphenyl)-ethyl]-allylamine hydrochloride] | 19 | 6.25 | 94 to 95 °C
NC/C(=C\F)CCc1cc(F)cc(C(F)(F)F)c1.O=C(O)C(F)(F)F [Compound I-109-Z, (Z)-3-Fluoro-2-(3-fluoro-5-trifluoromethylphenylethyl)allylamine trifluoroacetate] | 5.9 | 5.80 | 56 to 57 °C
Cl.NC/C(F)=C\Cc1ccc(F)cc1 [II-5-E, (E)-2-Fluoro-4-(4-fluorophenyl)-2-butenylamine hydrochloride] | >3333 | < 3.00 | 213 to 214 °C
Cc1cccc(C/C=C(/F)CN)c1.Cl [II-6-E, (E)-2-Fluoro-4-(3-methylphenyl)-2-butenylamine hydrochloride] | 7692 |  | 195 to 196 °C
Cl.NC/C(F)=C\Cc1cccc(F)c1 [II-7-E, (E)-2-Fluoro-4-(3-fluorophenyl)-2-butenylamine hydrochloride] | 4545 |  | 175 to 176 °C
COc1cccc(C/C=C(/F)CN)c1.Cl [II-8-E, (E)-2-Fluoro-4-(3-methoxyphenyl)-2-butenylamine hydrochloride] | 50000 | 2.96 | 175 to 176 °C
Cl.NC/C(F)=C\Cc1ccccc1 [II-9-E, (E)-2-Fluoro-4-phenyl-2-butenylamine hydrochloride] | 12120 | 2.92 | 120 to 121 °C
Cl.NC/C(F)=C\Cc1cccc(OC(F)(F)F)c1 [II-10-E, (E)-2-Fluoro-4-(3-trifluoromethoxyphenyl)-2-butenylamine hydrochloride] | 53670 | 3.02 | 174 to 175 °C
CN(C)c1cccc(C/C=C(/F)CN)c1.Cl [II-11-E, (E)-2-Fluoro-4-(3-dimethylaminophenyl)-2-butenylamine hydrochloride] | 7272 |  | 
CSc1cccc(C/C=C(/F)CN)c1.Cl [II-13-E, (E)-2-Fluoro-4-(3-methylthiophenyl)-2-butenylamine hydrochloride] | 100000 |  | 192 to 193 °C
CS(=O)(=O)c1cccc(C/C=C(/F)CN)c1.Cl [II-14-E, (E)-2-Fluoro-4-(3-methanesulfonylphenyl)-2-butenylamine hydrochloride] | 14286 |  | 196 to 197 °C
Cl.NC/C(F)=C\Cc1cccc(SC(F)(F)F)c1 [II-15-E, (E)-2-Fluoro-4-(3-trifluoromethylthiophenyl)-2-butenylamine hydrochloride] | >34780 | < 3.10 | 188 to 189 °C
COc1cccc(C/C(C)=C(/F)CN)c1 [II-18-E, hydrochloride] | >3448 | < 3.00 | 
COc1cccc(OC/C=C(/F)CN)c1 [II-19-E, (E)-2-fluoro-4-(3-methoxyphenoxy)but-2-en-1-amine] | 5312 | 3.07 | 
